Reference: patent publication US11174243B2, “Succinate forms and compositions of Bruton's tyrosine kinase inhibitors” (Sunesis Pharmaceuticals, Inc., priority 2016, dated 2021)
Where two headings read alike, the source gives them in different places.

Tests used:
[1] = Phase 1a single-dose study in humans, Stage 1: pharmacokinetics; type: in vivo, human; conditions: for Cmax / Vd/F / AUC(0-t) / Tmax / half-life: both sexes, human, plasma; for AUC(0-t): read-out: AUC0-24
Protocol: (§1) A first-in-human Phase 1a randomized, double-blind, placebo-controlled, single-dose study, was conducted in 3 stages: In Stage 1, four sequential cohorts of 8 subjects each were randomly assigned to receive progressively higher single oral administrations of Compound 2 at doses of 50, 100, 200, and 300 mg (n=6 per cohort; 3 males and 3 females) or placebo (n=2 per cohort; 1 male and 1 female).
(§2) The primary endpoint of safety was assessed by monitoring adverse events (AEs), laboratory abnormalities, and cardiac findings (ECG). Secondary endpoints included evaluation of the PK parameters of area under the plasma concentration-time curve (AUC), maximum plasma concentration (Cmax), time of maximum concentration (Tmax), apparent volume of distribution (Vd/F), terminal elimination half-life (t1/2), terminal elimination rate constant (λz), and apparent clearance (Cl/F) as well as the PD parameter of BTK inhibition in whole blood.
Compound 2 is a succinate salt. Plasma concentrations of the free base (Compound 1) were measured and used for estimation of PK parameters and elaboration of concentration/PD relationships.

CD40 expression = assay: CpG induced CD40 expression (flow cytometry); type: cell-based, human; conditions: 3.2 μM CpG stimulation, 1 μM
Protocol: Methods: Primary CLL B cells were isolated from the whole blood of consented patients by FICOLL density centrifugation and rosette-sep negative selection. Annexin V and propidium iodide flow cytometry was used to measure patient CLL cell viability and 7AAD was used to measure viability in stromal co-culture. CD40 and CD86 expression was evaluated via flow cytometry subsequent to sustained 3.2 μM CpG stimulation. BCR signaling in primary CLL cells was investigated by immunoblot succeeding 1 hour treatment and following 1 hour or 24 hours of incubation with Compound 1 in XLA cell lines. MTS values were read after 24 hours of drug incubation. ITK inhibition was investigated via immunoblot after stimulation with anti-CD3 and anti-CD28 and incubation with Compound 1 for 1 hour. Compound 1 was used at a concentration of 1 μM in preclinical studies unless otherwise noted.

BMX = target: T1, BMX (Homo sapiens, UniProt P51813); assay: Kinase selectivity, BMX (Kd)
T1 sequence (P51813 1-675): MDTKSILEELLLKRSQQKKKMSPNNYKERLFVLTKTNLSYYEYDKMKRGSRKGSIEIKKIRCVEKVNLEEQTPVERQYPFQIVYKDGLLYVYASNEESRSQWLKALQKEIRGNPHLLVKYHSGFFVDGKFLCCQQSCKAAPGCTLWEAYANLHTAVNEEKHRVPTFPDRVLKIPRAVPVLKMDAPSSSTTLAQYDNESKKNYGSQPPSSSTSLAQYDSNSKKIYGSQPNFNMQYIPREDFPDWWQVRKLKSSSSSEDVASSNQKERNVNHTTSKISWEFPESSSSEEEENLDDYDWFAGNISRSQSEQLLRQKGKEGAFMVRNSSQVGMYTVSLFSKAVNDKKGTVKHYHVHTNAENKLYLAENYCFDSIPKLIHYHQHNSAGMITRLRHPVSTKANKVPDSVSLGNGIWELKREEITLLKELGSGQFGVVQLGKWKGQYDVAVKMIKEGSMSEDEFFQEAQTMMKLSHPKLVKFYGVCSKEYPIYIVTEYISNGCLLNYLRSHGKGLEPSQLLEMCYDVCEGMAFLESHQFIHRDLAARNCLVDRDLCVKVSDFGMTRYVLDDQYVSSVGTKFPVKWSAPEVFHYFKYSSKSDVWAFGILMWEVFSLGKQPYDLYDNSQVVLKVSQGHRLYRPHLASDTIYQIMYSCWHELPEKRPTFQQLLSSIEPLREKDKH

[2] = Phase 1a single-dose study in humans: safety; type: in vivo, human
Protocol: as §1, §2

Single-dose PK in dog = type: in vivo, male beagle dogs; conditions: beagle, plasma
Protocol: (§3) A series of single-dose PK studies were conducted in rat, dog, and monkey to investigate the plasma PK of Compound 2 following single oral and single intravenous (IV) administration of Compound 2.
A study was conducted to assess the PK of Compound 2 formulated as a suspension or as a solid in capsule. […] Three different dogs were used for each dose level. […] Inter-animal variability in Compound 2 free base plasma systemic exposure was observed after IV and oral administration irrespective of formulation.

Single-dose PK in monkey = type: in vivo; conditions: male, cynomolgus monkey, plasma
Protocol: as §3
The PK of Compound 2 was studied in the male cynomolgus monkey (n=3) following single IV administration of Compound 2 at 1 mg/kg and single oral administration at 5 mg/kg (DRN105-0042). Following each administration, serial blood samples were collected at 0.08, 0.25, 0.5, 1, 2, 4, 7, 16, and 24 hours postdose.

[3] = oral, Cohort 1 (50 mg), mean (SD)
[4] = oral, Cohort 2 (100 mg), mean (SD)
[5] = oral, Cohort 3 (200 mg), mean (SD)
[6] = oral, Cohort 4 (300 mg), mean (SD)
[7] = 1 mg/kg, IV, dose 1, 70% PEG400/H2O, free base measured
[8] = male, 5 mg/kg, PO, dose not given, 0.1% CMC/0.2% Tween, free base measured
[9] = 5 mg/kg, PO, dose 5, 0.1% CMC/0.2% Tween, free base measured

NC(=O)[C@H]1CCN(c2ncnc(N)c2F)C[C@@H]1N1CCC[C@@H](Nc2cc(Cl)cc(C(F)(F)F)c2)C1=O [Compound 1, (3R,3′R,4′S)-1′-(6-amino-5-fluoropyrimidin-4-yl)-3-((3-chloro-5-(trifluoromethyl)phenyl)amino)-2-oxo-[1,3′-bipiperidine]-4′-carboxamide]
t1/2 ([1]; 50 mg (single dose), after dosing with Compound 2, mean): 8.14 h | dose proportionality of total exposure (AUC and Cmax) ([1]; 50-300 mg single oral dose): increased approximately proportionally with dose | CL/F ([1]; Cohort 1 (50 mg), mean (SD)): 6139 (1250) mL/hr | CL/F ([1]; Cohort 2 (100 mg), mean (SD)): 7162 (2900) mL/hr | CL/F ([1]; Cohort 3 (200 mg), mean (SD)): 7886 (3724) mL/hr | CL/F ([1]; Cohort 4 (300 mg), mean (SD)): 7615 (1595) mL/hr | Cmax ([1]; oral, 50 mg (single dose), after dosing with Compound 2, mean): 1910 ng/mL | Vd/F [1, 3]: 69.6 L | AUC(0-t) [1, 3]: 7830 ng·h/mL | Tmax ([1]; oral, Cohort 1 (50 mg), mean (SD), read-out: Tmax): 1.17 h | half-life ([1]; oral, Cohort 1 (50 mg), mean (SD), read-out: t1/2 (converted)): 8.14 h | Vd/F [1, 4]: 72.9 L | Cmax ([1]; oral, Cohort 2 (100 mg), mean (SD), N 6): 3400 ng/mL | AUC(0-t) [1, 4]: 14500 ng·h/mL | Tmax ([1]; oral, Cohort 2 (100 mg), mean (SD), read-out: Tmax): 1.25 h | half-life ([1]; oral, Cohort 2 (100 mg), mean (SD), read-out: t1/2 (converted)): 7.43 h | Vd/F [1, 5]: 118 L | Cmax ([1]; oral, Cohort 3 (200 mg), mean (SD), N 6): 5960 ng/mL | AUC(0-t) [1, 5]: 29900 ng·h/mL | Tmax ([1]; oral, Cohort 3 (200 mg), mean (SD), read-out: Tmax): 1 h | half-life ([1]; oral, Cohort 3 (200 mg), mean (SD), read-out: t1/2 (converted)): 10.5 h | Vd/F [1, 6]: 177 L | Cmax ([1]; oral, Cohort 4 (300 mg), mean (SD), N 6): 6800 ng/mL | AUC(0-t) [1, 6]: 35400 ng·h/mL | Tmax ([1]; oral, Cohort 4 (300 mg), mean (SD), read-out: Tmax): 1.5 h | half-life ([1]; oral, Cohort 4 (300 mg), mean (SD), read-out: t1/2 (converted)): 17 h | half-life ([1]; 50-300 mg single oral dose, read-out: Mean t1/2 values across all dose cohorts): 7.43 to 17 h | Cmax ([1]; Cohort 1 (50 mg Compound 2, single oral), mean (SD), N 6): 1910 ng/mL | Tmax ([1]; all dose cohorts, oral, range: 0.5-3.0, read-out: median Tmax): 1 h | decrease of CpG induced CD40 expression (CD40 expression): 8.7% | Kd (BMX): ≥ 200 nM

NC(=O)[C@H]1CCN(c2ncnc(N)c2F)C[C@@H]1N1CCC[C@@H](Nc2cc(Cl)cc(C(F)(F)F)c2)C1=O [Compound 2]
subjects with treatment-emergent AEs (TEAEs) ([2]; 24 subjects, single oral doses 50-300 mg, 8 subjects): 33% | subjects with treatment-related TEAEs ([2]; 24 subjects, single oral doses 50-300 mg, six subjects): 25% | Grade 3 or higher AEs ([2]; single oral doses): No Grade 3 or higher AEs were reported | SAEs ([2]; single oral doses): No SAEs were reported | dose-dependent toxicity ([2]; single oral doses 50-300 mg): No obvious pattern of dose-dependent toxicity was observed | AUC(0-inf) (Single-dose PK in dog; [7]): 1080 ng·h/mL | C0 (Single-dose PK in dog; [7]): 1920 ng/mL | half-life (Single-dose PK in dog; [7]): 0.8 h | AUC(0-inf) (Single-dose PK in dog; [8]): 3520 ng·h/mL | Cmax (Single-dose PK in dog; [8]): 2970 ng/mL | Tmax (Single-dose PK in dog; [8]): 0.8 h | bioavailability (Single-dose PK in dog; male, 5 mg/kg, PO, dose not given, 0.1% CMC/0.2% Tween, read-out: % F (oral bioavailability)): 65% | AUC(0-inf) (Single-dose PK in monkey; [7]): 1920 ng·h/mL | C0 (Single-dose PK in monkey; [7]): 1600 ng/mL | half-life (Single-dose PK in monkey; [7]): 1.9 h | AUC(0-inf) (Single-dose PK in monkey; [9]): 3220 ng·h/mL | Cmax (Single-dose PK in monkey; [9]): 1400 ng/mL | Tmax (Single-dose PK in monkey; [9]): 1.5 h | bioavailability (Single-dose PK in monkey; 5 mg/kg, PO, dose 5, 0.1% CMC/0.2% Tween, read-out: % F (oral bioavailability)): 33%
